Measurements from article PMC11564790 (Synthetic and Systems Biotechnology, 2024).

Target: MBP-fused YpsR (1-179); YpsR-MBP; heading also 'YpeR' (Yersinia pseudotuberculosis, UniProt Q669I5)
Conditions: read-out: Dissociation constant

Sequence of MBP-fused YpsR (1-179); YpsR-MBP; heading also 'YpeR' (Q669I5 1-179 limits assumed): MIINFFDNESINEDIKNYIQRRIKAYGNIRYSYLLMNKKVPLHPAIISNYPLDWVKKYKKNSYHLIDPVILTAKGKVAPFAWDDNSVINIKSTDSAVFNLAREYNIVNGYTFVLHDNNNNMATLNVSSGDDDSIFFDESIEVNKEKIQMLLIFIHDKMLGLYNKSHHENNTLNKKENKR

SMILES	Kd [µM]
CCCCCCCC(=O)CC(=O)N[C@H]1CCOC1=O [3OC10]	146
CCCC(=O)CC(=O)N[C@H]1CCOC1=O [3OC6]	1.3
CCCCCC(=O)CC(=O)N[C@H]1CCOC1=O [3OC8]	24.2
CCCCCCCCCCCC(=O)CC(=O)N[C@H]1CCOC1=O [3OC14]	18.2
CCCCCC(=O)N[C@H]1CCOC1=O [C6]	6.6
CCCCCCCCCC(=O)N[C@H]1CCOC1=O [C10]	21.3
CCCCCCCC(=O)N[C@H]1CCOC1=O [C8]	15.6
CCCCCCCCCC(=O)CC(=O)N[C@H]1CCOC1=O [3OC12]	130
